Like-named read-outs stand apart in the source and are kept apart here.
Columns and labels:
[1] = test system: MOLM-13 cells; test: Cell viability assay (CellTiter-Glo) in MOLM-13 cells; assay type: cell-based; settings: MOLM-13 cells, three days
[2] = test system: MV4;11 cells; test: Cell viability assay (CellTiter-Glo) in MV4;11 cells; assay type: cell-based; settings: MV4;11 cells, three days, read-out: MV4
In short: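 After three days' exposure to 3-fold serial compound dilutions (8 or 12 points), viability of cells seeded at 5000/well is read by CellTiter-Glo. Runs were done alone or combined with gilteritinib at 10 nM (MV4;11) or 20 nM (MOLM-13); IC50 from nonlinear regression.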

[3] = Homo sapiens, 72 h, compound alone, read-out: MOLM-13 IC50
[4] = with gilteritinib, read-out: MOLM-13 IC50 (nM) + 10 nM Gil
[5] = Homo sapiens, MV4-11, 72 h, compound alone, 11 IC50
[6] = with 10 nM gilteritinib, 11 IC50 (nM) + 10 nM Gil

Row | Compound | IC50 [1, 3] [nM] | IC50 [1, 4] [nM] | IC50 [2, 5] [nM] | IC50 [2, 6] [nM]
1 | Cn1ncc2cncc(-c3cn([C@H]4C[C@H](CNc5ccc6c(c5)C(=O)N(C5CCC(=O)NC5=O)C6=O)C4)nc3C3CC3)c21 (stereo partly drawn) [GS-781, 5-(((Trans-3-(3-cyclopropyl-4-(1-methyl-1H-pyrazolo[4,3-c]pyridin-7-yl)-1H-pyrazol-1-yl)cyclobutyl)methyl)amino)-2-(2,6-dioxopiperidin-3-yl)isoindoline-1,3-dione] | 100 to 1000 | 10 to 100 | 10 to 100 | < 10
2 | Cn1nccc1Nc1cn([C@H]2C[C@H](CNc3ccc4c(c3)C(=O)N(C3CCC(=O)NC3=O)C4=O)C2)nc1C1CC1 (stereo partly drawn) [GS-784, 5-(((Trans-3-(3-cyclopropyl-4-((1-methyl-1H-pyrazol-5-yl)amino)-1H-pyrazol-1-yl)cyclobutyl)methyl)amino)-2-(2,6-dioxopiperidin-3-yl)isoindoline-1,3-dione] | 100 to 1000 | 100 to 1000 | 100 to 1000 | 10 to 100
3 | N[C@H]1C[C@H](n2cc3cnc(-c4cn([C@H]5C[C@H](CNc6ccc7c(c6)C(=O)N(C6CCC(=O)NC6=O)C7=O)C5)nc4C4CC4)cc3n2)C1 (stereo partly drawn) [GS-786, 5-(((Trans-3-(4-(2-(trans-3-aminocyclobutyl)-2H-pyrazolo[4,3-c]pyridin-6-yl)-3-cyclopropyl-1H-pyrazol-1-yl)cyclobutyl)methyl)amino)-2-(2,6-dioxopiperidin-3-yl)isoindoline-1,3-dione] | 10 to 100 | < 10 | < 10 | < 10
4 | Cc1nc(-c2cn([C@H]3C[C@H](COc4ccc5c(c4)CN(C4CCC(=O)NC4=O)C5=O)C3)nc2C2CC2)ccc1F (stereo partly drawn) [GS-787, 3-(5-((Trans-3-(3-cyclopropyl-4-(5-fluoro-6-methylpyridin-2-yl)-1H-pyrazol-1-yl)cyclobutyl)methoxy)-1-oxoisoindolin-2-yl)piperidine-2,6-dione] | > 1000 |  | > 1000 | 

Second part, the molecule after the results:

Row | IC50 [1, 3] [nM] | IC50 [1, 4] [nM] | IC50 [2, 5] [nM] | IC50 [2, 6] [nM] | Compound
5 | 10 to 100 | < 10 | 10 to 100 | < 10 | O=C1CCC(N2C(=O)c3ccc(NC[C@H]4C[C@H](n5cc(-c6ccc7c(n6)C(O)CC7)c(C6CC6)n5)C4)cc3C2=O)C(=O)N1 (stereo partly drawn) [GS-780, 5-(((Trans-3-(3-cyclopropyl-4-(7-hydroxy-6,7-dihydro-5H-cyclopenta[b]pyridin-2-yl)-1H-pyrazol-1-yl)cyclobutyl)methyl)amino)-2-(2,6-dioxopiperidin-3-yl)isoindoline-1,3-dione]
6 | 10 to 100 | < 10 | < 10 | < 10 | O=C1CCC(N2C(=O)c3ccc(NC[C@H]4C[C@H](n5cc(-c6cc7c(cn6)cnn7[C@H]6CC[C@@H](O)CC6)c(C6CC6)n5)C4)cc3C2=O)C(=O)N1 (stereo partly drawn) [GS-782]
7 | 10 to 100 | 10 to 100 | 10 to 100 | 10 to 100 | O=C1CCC(N2C(=O)c3ccc(NCCC4CC5(C4)CC(n4nc(C6CC6)c6ccccc64)C5)cc3C2=O)C(=O)N1 (stereo not drawn) [GS-783, 5-((2-(6-(3-Cyclopropyl-1H-indazol-1-yl)spiro[3.3]heptan-2-yl)ethyl)amino)-2-(2,6-dioxopiperidin-3-yl)isoindoline-1,3-dione]
8 | 10 to 100 | < 10 | < 10 | < 10 | N[C@H]1C[C@@H](n2cc3cnc(-c4cn([C@H]5C[C@H](CNc6ccc7c(c6)C(=O)N(C6CCC(=O)NC6=O)C7=O)C5)nc4C4CC4)cc3n2)C1 (stereo partly drawn) [GS-785, 5-(((Trans-3-(4-(2-(cis-3-aminocyclobutyl)-2H-pyrazolo[4,3-c]pyridin-6-yl)-3-cyclopropyl-1H-pyrazol-1-yl)cyclobutyl)methyl)amino)-2-(2,6-dioxopiperidin-3-yl)isoindoline-1,3-dione]

From patent publication US20250221988A1 (Cullgen (Shanghai), Inc., priority 2022, published 2025)
